Test results from BindingDB's records for patent US12180185 (Hk Inno.N, 2024).

Molecular target: Tyrosine-protein kinase JAK1 (Homo sapiens, UniProt P23458)
Assay: ADP-Glo Kinase assay
Description: An inhibitory effect of the inventive compound on JAK was identified as follows.A control material and a test material were prepared through dilution at each concentration by using DMSO. At the same time, ATP (250 uM) and JAK's substrate (JAK1, IRS-1tide 40 ng/mL) were prepared through dilution in kinase buffer (40 mM Tris-HCl pH 7.5, 20 mM MgCl2, 0.5 mg/mL BSA, 50 uM DTT).A test drug for each concentration, the substrate, the ATP and JAK enzymes were mixed in an eppendorf tube, and then subjected to reaction in an incubator at 30° C. for 40 minutes.ADP-GloFigure US12180185-20241231-P00001 reagent included in ADP-Glo™ Kinase Enzyme System (Promega, USA, V9571) was added to each eppendorf tube, and then subjected to reaction in the incubator at 30° C. for 40 minutes.A kinase detection reagent included in the ADP-Glo™ Kinase Enzyme System was inserted into the eppendorf tube, after which luminescence was measured by using Wallac Victor 2TM with an integration time set to 1 second, such that an inhibitory capacity of the test material on JAKs phosphorylation was analyzed. A concentration of the compound, at which JAK enzyme activity inhibition occurs 50% compared to the control group, was determined as IC50 (nM) of an inhibitor.

Chain of Tyrosine-protein kinase JAK1 (P23458 whole entry): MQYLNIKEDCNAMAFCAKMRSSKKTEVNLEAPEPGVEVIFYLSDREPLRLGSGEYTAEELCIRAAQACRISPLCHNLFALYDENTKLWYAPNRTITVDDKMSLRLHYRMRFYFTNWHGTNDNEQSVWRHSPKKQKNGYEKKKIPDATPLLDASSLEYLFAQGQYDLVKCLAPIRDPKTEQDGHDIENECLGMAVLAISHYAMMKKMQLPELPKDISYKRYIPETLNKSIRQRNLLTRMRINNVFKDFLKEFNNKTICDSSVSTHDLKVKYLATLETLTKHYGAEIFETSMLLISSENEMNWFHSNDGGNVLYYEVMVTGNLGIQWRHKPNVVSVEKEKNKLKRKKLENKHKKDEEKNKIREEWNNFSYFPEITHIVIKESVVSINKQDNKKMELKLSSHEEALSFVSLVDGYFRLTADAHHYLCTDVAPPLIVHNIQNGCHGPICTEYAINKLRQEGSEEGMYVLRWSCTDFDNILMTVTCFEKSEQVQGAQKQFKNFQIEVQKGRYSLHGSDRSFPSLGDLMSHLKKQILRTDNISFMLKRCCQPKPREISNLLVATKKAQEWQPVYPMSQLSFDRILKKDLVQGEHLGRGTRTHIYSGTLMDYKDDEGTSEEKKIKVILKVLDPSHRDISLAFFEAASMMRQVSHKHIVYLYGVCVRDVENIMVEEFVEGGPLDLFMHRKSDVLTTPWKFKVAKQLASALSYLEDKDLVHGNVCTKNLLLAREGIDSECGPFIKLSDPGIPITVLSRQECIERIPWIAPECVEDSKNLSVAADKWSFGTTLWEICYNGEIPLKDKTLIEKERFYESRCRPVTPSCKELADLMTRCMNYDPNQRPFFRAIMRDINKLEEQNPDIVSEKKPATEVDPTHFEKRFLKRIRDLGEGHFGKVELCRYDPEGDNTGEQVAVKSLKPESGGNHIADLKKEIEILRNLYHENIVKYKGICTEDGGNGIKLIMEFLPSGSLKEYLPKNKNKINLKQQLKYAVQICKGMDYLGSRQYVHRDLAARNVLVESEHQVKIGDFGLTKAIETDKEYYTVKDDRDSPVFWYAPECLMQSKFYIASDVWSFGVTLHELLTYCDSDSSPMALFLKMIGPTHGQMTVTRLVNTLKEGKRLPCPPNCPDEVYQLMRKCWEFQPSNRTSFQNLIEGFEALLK

IC50: > 1000 nM
Compound: CC(C)=C(C#N)C(=O)Nc1cccc2c(-c3ccnc(NC(=O)C4CC4)c3)n[nH]c12 [US12180185, Example 63]
